Each block holds one compound with its values, some of them ahead of it.
Key:
[1] = Compatibility test of sodium rabeprazole with additives (residual content by HPLC, visual coloring); type: physicochemical; conditions: 1 week, cold place sample = 100%; for residual content of sodium rabeprazole, 40° C.-75% RH: 40° C. 75% relative humidity
Protocol: 50 mg sodium rabeprazole and 450 mg additives shown in the table below were mixed in a mortar. The mixture was introduced into a transparent glass vial and stored in a cold place or at 60° C. or 40° C. under 75% relative humidity for 1 week and their content was determined by high performance liquid chromatography. Assuming that the content of the sample stored in the cold place is 100%, the degrees of the residual content under the respective conditions are shown in Tables 1 through 3. Further, their coloring changes were visually evaluated. The sodium rabeprazole used was amorphous in Table land crystalline in Tables 2 and 3. In Table 1, low-substituted hydroxypropyl cellulose (expressed as L-HPC) used as a disintegrating agent in addition to amorphous sodium rabeprazole was blended in the control; in Table 2, a sample further incorporating aluminum hydroxide (expressed as Al(OH) 3 in the table) i.e. an alkaline inorganic salt used as an antacid agent was used; and in Table 3, a sample incorporating polyvinyl pyrrolidone (expressed as PVP in the table) was used as a binder.

[2] = Amount of peroxide in crospovidone mixed with sodium sulfite (Japanese Pharmacopoeia test method); type: physicochemical
Protocol: Further, 1 g crospovidone containing 201 ppm peroxide was accurately taken, and sodium sulfite (amounts: 4 levels i.e. no addition, 0.02%, 0.05% and 0.10%) was added thereto and mixed well, and the amount of the peroxide in the mixture was determined according to a test method described in the Japanese Pharmacopoeia.

[3] = Table 1, amorphous sodium rabeprazole 50 mg + 450 mg additive
[4] = Table 2, crystalline sodium rabeprazole 50 mg + 450 mg additive
[5] = Table 3, crystalline sodium rabeprazole 50 mg + 450 mg additive

- residual content of sodium rabeprazole, 40° C.-75% RH [1, 3]: 93.9%
- residual content of sodium rabeprazole, 60° C. [1, 3]: 99.1%
SMILES: COCCCOc1ccnc(C[S+]([O-])c2nc3ccccc3[nH]2)c1C (stereo not drawn) [sodium rabeprazole (amorphous), sodium rabeprazole]

- residual content of sodium rabeprazole, 40° C.-75% RH [1, 4]: 91.8%
- residual content of sodium rabeprazole, 60° C. [1, 4]: 99.8%
- residual content of sodium rabeprazole, 40° C.-75% RH [1, 5]: 86.9%
- residual content of sodium rabeprazole, 60° C. [1, 5]: 97.3%
SMILES: COCCCOc1ccnc(C[S+]([O-])c2nc3ccccc3[nH]2)c1C (stereo not drawn) [sodium rabeprazole (crystalline), sodium rabeprazole]

SMILES: O=S([O-])[O-].[Na+].[Na+] [sodium sulfite]
- amount of the peroxide in the composition ([2]; 0.02% sodium sulfite added to 1 g crospovidone containing 201 ppm peroxide): 184 ppm
- amount of the peroxide in the composition ([2]; 0.05% sodium sulfite added to 1 g crospovidone containing 201 ppm peroxide): 108 ppm
- amount of the peroxide in the composition ([2]; 0.10% sodium sulfite added to 1 g crospovidone containing 201 ppm peroxide): 0 ppm

Source: US20020039597A1, “STABILIZED COMPOSITIONS CONTAINING BENZIMIDAZOLE-TYPE COMPOUNDS” (priority 1998, published 2002)
